Test results: ChEMBL document CHEMBL3232845 (Bioorg Med Chem Lett, 2014)

Assays:
Design in all cases: scale not given: the % may be the effect or the level left
[1] = target: Dual specificity mitogen-activated protein kinase kinase 7 (Homo sapiens) (UniProt O14733); assay: Inhibition of human MKK7 assessed as enzyme activity at 1 uM relative to control
[2] = target: Mast/stem cell growth factor receptor Kit (Homo sapiens) (UniProt P10721); assay: Inhibition of human KIT assessed as enzyme activity at 1 uM relative to control
[3] = target: RAC-gamma serine/threonine-protein kinase (Homo sapiens) (UniProt Q9Y243); assay: Inhibition of human AKT3 assessed as enzyme activity at 1 uM relative to control
[4] = target: Tyrosine-protein kinase Fgr (Homo sapiens) (UniProt P09769); assay: Inhibition of human Fgr assessed as enzyme activity at 1 uM relative to control
Sequence of Tyrosine-protein kinase Fgr (Homo sapiens) (P09769 2-529 limits assumed): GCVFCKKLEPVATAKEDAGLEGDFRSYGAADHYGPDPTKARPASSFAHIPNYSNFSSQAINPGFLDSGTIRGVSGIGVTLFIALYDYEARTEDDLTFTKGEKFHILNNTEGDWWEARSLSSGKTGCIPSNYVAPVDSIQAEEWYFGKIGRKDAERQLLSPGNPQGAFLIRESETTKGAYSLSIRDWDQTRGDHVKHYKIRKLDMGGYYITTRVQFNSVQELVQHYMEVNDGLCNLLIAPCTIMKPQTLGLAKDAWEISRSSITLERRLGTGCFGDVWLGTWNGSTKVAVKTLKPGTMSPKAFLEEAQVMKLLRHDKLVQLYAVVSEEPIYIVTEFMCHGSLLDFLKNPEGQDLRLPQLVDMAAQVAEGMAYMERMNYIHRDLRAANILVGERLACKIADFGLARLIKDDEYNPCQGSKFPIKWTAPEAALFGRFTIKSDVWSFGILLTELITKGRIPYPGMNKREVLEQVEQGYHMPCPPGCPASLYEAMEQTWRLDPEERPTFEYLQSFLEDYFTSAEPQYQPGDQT

[5] = target: Tyrosine-protein kinase Fyn (Homo sapiens) (UniProt P06241); assay: Inhibition of human Fyn assessed as enzyme activity at 1 uM relative to control
Sequence of Tyrosine-protein kinase Fyn (Homo sapiens) (P06241 2-537 limits assumed): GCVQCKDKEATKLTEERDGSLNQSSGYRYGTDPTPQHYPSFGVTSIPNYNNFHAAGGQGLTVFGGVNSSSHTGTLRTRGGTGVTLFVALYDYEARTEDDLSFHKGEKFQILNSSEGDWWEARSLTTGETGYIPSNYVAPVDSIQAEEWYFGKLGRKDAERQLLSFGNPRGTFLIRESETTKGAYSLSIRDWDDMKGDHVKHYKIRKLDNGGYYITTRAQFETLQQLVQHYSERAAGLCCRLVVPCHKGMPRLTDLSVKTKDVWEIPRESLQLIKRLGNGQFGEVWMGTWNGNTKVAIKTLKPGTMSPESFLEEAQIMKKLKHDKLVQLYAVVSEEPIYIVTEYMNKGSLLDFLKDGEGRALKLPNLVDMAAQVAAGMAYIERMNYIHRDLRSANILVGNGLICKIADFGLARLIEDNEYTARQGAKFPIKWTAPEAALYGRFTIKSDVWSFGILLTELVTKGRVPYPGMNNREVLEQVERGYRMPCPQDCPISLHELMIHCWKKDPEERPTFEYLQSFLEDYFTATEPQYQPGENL

[6] = target: Serine/threonine-protein kinase pim-3 (Homo sapiens) (UniProt Q86V86); assay: Inhibition of human Pim-3 assessed as enzyme activity at 1 uM relative to control
[7] = target: Tyrosine-protein kinase JAK2 (Homo sapiens) (UniProt O60674); assay: Inhibition of human JAK2 assessed as enzyme activity at 1 uM relative to control
[8] = target: Tyrosine-protein kinase Lck (Homo sapiens) (UniProt P06239); assay: Inhibition of human Lck assessed as enzyme activity at 1 uM relative to control
[9] = target: Homeodomain-interacting protein kinase 1 (Homo sapiens) (UniProt Q86Z02); assay: Inhibition of human HIPK1 assessed as enzyme activity at 1 uM relative to control
[10] = target: Muscle, skeletal receptor tyrosine-protein kinase (Homo sapiens) (UniProt O15146); assay: Inhibition of human MuSK assessed as enzyme activity at 1 uM relative to control
[11] = target: Ribosomal protein S6 kinase alpha-3 (Homo sapiens) (UniProt P51812); assay: Inhibition of human Rsk2 assessed as enzyme activity at 1 uM relative to control
[12] = target: SRSF protein kinase 1 (Homo sapiens) (UniProt Q96SB4); assay: Inhibition of human SRPK1 assessed as enzyme activity at 1 uM relative to control
[13] = target: Vascular endothelial growth factor receptor 1 (Homo sapiens) (UniProt P17948); assay: Inhibition of human Flt1 assessed as enzyme activity at 1 uM relative to control
Sequence of Vascular endothelial growth factor receptor 1 (Homo sapiens) (P17948 whole entry): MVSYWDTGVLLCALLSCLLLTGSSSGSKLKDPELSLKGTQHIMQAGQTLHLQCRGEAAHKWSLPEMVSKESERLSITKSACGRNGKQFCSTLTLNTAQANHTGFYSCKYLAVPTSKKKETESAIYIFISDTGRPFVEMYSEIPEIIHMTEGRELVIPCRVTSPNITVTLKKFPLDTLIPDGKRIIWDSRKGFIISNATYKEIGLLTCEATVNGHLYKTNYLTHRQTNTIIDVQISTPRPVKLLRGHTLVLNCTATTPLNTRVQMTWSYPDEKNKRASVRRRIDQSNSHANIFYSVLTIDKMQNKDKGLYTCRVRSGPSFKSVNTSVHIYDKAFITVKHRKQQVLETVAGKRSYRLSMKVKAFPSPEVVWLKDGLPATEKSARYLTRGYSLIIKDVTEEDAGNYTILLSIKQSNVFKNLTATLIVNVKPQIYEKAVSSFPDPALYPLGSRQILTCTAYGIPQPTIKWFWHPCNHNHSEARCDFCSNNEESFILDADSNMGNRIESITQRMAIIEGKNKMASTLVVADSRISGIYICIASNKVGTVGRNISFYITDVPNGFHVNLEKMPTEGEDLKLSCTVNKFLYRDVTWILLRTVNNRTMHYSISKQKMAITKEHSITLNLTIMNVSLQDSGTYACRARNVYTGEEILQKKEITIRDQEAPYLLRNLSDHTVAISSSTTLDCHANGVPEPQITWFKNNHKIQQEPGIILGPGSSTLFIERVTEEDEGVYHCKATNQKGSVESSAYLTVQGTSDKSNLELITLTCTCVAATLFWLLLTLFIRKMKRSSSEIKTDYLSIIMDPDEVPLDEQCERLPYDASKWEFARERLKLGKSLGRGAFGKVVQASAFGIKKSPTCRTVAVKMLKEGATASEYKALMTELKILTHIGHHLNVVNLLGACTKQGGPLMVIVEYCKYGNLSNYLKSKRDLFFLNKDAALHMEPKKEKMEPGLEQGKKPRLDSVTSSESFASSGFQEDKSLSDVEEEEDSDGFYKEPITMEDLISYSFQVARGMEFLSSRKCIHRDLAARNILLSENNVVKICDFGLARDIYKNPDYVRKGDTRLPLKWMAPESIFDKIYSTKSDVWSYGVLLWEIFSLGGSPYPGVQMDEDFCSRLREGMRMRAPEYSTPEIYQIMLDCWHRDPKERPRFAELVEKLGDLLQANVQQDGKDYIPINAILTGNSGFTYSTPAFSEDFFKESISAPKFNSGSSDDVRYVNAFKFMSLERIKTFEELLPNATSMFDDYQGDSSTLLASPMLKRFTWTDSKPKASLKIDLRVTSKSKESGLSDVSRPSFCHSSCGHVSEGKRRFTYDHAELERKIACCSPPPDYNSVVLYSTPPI

[14] = target: Serine/threonine-protein kinase Nek7 (Homo sapiens) (UniProt Q8TDX7); assay: Inhibition of human NEK7 assessed as enzyme activity at 1 uM relative to control
[15] = target: Tyrosine-protein kinase receptor TYRO3 (Homo sapiens) (UniProt Q06418); assay: Inhibition of human Rse assessed as enzyme activity at 1 uM relative to control
Sequence of Tyrosine-protein kinase receptor TYRO3 (Homo sapiens) (Q06418 whole entry): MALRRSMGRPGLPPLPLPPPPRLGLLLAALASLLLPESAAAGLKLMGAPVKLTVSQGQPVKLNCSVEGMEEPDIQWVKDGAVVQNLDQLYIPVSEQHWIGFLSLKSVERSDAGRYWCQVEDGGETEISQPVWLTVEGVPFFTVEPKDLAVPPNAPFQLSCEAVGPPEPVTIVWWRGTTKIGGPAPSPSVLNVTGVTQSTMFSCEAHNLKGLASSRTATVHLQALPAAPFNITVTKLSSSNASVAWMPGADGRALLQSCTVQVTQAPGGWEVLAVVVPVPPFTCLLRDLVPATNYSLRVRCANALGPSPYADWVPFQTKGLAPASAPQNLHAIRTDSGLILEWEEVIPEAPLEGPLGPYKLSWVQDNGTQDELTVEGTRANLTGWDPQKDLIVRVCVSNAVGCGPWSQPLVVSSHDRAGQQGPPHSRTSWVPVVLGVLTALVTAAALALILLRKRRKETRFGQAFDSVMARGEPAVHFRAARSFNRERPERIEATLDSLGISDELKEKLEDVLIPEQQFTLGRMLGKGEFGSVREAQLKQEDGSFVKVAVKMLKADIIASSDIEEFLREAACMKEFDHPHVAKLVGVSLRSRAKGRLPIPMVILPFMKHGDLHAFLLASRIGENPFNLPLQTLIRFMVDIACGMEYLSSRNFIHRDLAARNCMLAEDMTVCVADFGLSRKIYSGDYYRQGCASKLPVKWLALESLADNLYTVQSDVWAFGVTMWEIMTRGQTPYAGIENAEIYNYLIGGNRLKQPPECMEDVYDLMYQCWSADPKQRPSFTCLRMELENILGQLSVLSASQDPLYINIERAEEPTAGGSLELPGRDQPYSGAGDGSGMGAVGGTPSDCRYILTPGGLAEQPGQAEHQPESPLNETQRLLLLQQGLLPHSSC

[16] = target: Mitogen-activated protein kinase 10 (Homo sapiens) (UniProt P53779); assay: Inhibition of human JNK3 assessed as enzyme activity at 1 uM relative to control
[17] = target: Cytoplasmic tyrosine-protein kinase BMX (Homo sapiens) (UniProt P51813); assay: Inhibition of human Bmx assessed as enzyme activity at 1 uM relative to control
[18] = target: Ephrin type-B receptor 4 (Homo sapiens) (UniProt P54760); assay: Inhibition of human EphB4 assessed as enzyme activity at 1 uM relative to control
Sequence of Ephrin type-B receptor 4 (Homo sapiens) (P54760 whole entry): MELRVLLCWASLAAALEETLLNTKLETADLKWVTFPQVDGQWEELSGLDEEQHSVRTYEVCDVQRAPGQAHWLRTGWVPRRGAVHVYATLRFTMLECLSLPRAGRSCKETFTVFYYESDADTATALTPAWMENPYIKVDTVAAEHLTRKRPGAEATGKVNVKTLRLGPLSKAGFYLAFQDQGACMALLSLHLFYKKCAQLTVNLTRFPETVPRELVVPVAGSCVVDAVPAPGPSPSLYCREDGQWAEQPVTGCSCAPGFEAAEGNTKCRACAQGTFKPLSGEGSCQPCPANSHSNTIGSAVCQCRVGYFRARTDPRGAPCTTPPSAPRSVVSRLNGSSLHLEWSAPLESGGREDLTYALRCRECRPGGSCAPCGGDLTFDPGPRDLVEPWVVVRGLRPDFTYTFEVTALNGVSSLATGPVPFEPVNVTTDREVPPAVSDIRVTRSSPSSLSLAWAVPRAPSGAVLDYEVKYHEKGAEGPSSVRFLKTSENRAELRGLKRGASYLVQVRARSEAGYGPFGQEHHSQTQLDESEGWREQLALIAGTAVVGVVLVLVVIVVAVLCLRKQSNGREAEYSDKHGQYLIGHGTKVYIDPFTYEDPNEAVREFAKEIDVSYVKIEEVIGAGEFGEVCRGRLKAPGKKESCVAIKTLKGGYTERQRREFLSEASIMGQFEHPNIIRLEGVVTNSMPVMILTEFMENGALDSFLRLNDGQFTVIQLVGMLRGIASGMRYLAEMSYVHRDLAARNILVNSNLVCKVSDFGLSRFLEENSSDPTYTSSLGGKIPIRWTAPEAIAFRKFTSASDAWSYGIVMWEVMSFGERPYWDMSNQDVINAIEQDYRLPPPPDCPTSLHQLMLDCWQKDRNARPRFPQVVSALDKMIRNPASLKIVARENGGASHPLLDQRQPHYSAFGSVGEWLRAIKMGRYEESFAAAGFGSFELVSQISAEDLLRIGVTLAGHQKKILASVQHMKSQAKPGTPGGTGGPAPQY

[19] = target: Mitogen-activated protein kinase 1 (Homo sapiens) (UniProt P28482); assay: Inhibition of human ERK2 assessed as enzyme activity at 1 uM relative to control
[20] = target: RAC-alpha serine/threonine-protein kinase (Homo sapiens) (UniProt P31749); assay: Inhibition of human AKT1 assessed as enzyme activity at 1 uM relative to control
[21] = target: Interleukin-1 receptor-associated kinase 1 (Homo sapiens) (UniProt P51617); assay: Inhibition of human IRAK1 assessed as enzyme activity at 1 uM relative to control
[22] = target: Ribosomal protein S6 kinase alpha-5 (Homo sapiens) (UniProt O75582); assay: Inhibition of human MSK1 assessed as enzyme activity at 1 uM relative to control
[23] = target: Glycogen synthase kinase-3 alpha (Homo sapiens) (UniProt P49840); assay: Inhibition of human GSK3alpha assessed as enzyme activity at 1 uM relative to control
[24] = target: Mitogen-activated protein kinase 11 (Homo sapiens) (UniProt Q15759); assay: Inhibition of human p38beta assessed as enzyme activity at 1 uM relative to control
[25] = target: Serine/threonine-protein kinase WNK3 (Homo sapiens) (UniProt Q9BYP7); assay: Inhibition of human WNK3 assessed as enzyme activity at 1 uM relative to control
[26] = target: Serine/threonine-protein kinase 3 (Homo sapiens) (UniProt Q13188); assay: Inhibition of human MST2 assessed as enzyme activity at 1 uM relative to control
[27] = target: Serine/threonine-protein kinase SIK1 (Homo sapiens) (UniProt P57059); assay: Inhibition of human SIK assessed as enzyme activity at 1 uM relative to control
Sequence of Serine/threonine-protein kinase SIK1 (Homo sapiens) (P57059 whole entry): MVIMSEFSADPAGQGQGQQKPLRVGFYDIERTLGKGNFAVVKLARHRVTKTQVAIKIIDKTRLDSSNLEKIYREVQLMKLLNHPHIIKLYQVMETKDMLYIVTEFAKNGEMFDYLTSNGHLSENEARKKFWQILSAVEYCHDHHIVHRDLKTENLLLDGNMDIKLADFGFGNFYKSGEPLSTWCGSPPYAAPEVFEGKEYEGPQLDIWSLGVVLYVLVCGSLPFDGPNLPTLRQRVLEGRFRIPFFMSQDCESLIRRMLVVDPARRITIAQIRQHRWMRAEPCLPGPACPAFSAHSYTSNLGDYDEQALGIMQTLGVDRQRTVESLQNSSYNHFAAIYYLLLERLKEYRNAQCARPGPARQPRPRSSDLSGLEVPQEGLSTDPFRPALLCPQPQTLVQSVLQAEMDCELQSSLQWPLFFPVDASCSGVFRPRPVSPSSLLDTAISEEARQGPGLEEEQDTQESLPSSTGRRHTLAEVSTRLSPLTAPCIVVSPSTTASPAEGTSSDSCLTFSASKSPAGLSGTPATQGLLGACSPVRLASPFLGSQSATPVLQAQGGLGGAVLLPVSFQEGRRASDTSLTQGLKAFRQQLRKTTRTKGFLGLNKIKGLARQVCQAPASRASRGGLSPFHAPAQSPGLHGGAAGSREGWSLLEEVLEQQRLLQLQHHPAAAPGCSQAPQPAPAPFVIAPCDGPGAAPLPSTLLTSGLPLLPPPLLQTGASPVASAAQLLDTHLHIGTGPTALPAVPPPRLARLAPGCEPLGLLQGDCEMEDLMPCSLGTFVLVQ

[28] = target: Calcium/calmodulin-dependent protein kinase type II subunit beta (Homo sapiens) (UniProt Q13554); assay: Inhibition of human CAMK2b assessed as enzyme activity at 1 uM relative to control
[29] = target: Mitogen-activated protein kinase kinase kinase 9 (Homo sapiens) (UniProt P80192); assay: Inhibition of human MLK1 assessed as enzyme activity at 1 uM relative to control
[30] = target: Protein kinase C theta type (Homo sapiens) (UniProt Q04759); assay: Inhibition of human PKCtheta assessed as enzyme activity at 1 uM relative to control
[31] = target: Protein kinase C zeta type (Homo sapiens) (UniProt Q05513); assay: Inhibition of human PKCzeta assessed as enzyme activity at 1 uM relative to control
[32] = target: Serine/threonine-protein kinase MARK2 (Homo sapiens) (UniProt Q7KZI7); assay: Inhibition of human MARK2 assessed as enzyme activity at 1 uM relative to control
[33] = target: Proto-oncogene tyrosine-protein kinase Src (Homo sapiens) (UniProt P12931); assay: Inhibition of human Src assessed as enzyme activity at 1 uM relative to control
[34] = target: Serine/threonine-protein kinase Chk1 (Homo sapiens) (UniProt O14757); assay: Inhibition of human CHK1 assessed as enzyme activity at 1 uM relative to control
[35] = target: Mitogen-activated protein kinase kinase kinase 5 (Homo sapiens) (UniProt Q99683); assay: Inhibition of human MAP3K5 assessed as enzyme activity at 1 uM relative to control
[36] = target: Dual specificity protein kinase CLK3 (Homo sapiens) (UniProt P49761); assay: Inhibition of human CLK3 assessed as enzyme activity at 1 uM relative to control
[37] = target: Homeodomain-interacting protein kinase 2 (Homo sapiens) (UniProt Q9H2X6); assay: Inhibition of human HIPK2 assessed as enzyme activity at 1 uM relative to control
[38] = target: Fibroblast growth factor receptor 3 (Homo sapiens) (UniProt P22607); assay: Inhibition of human FGFR3 assessed as enzyme activity at 1 uM relative to control

An Activity [1] of 121%, an Activity [2] of 94.5% and an Activity [3] of 109% were found for `CCCS(=O)(=O)Nc1cccc(Nc2ccc3ncn(C)c(=O)c3c2)c1C#N` in this work. It also gave an Activity [4] of 105%, an Activity [5] of 91.5% and an Activity [6] of 97%. For the same molecule, the Activity [7] was 110%, the Activity [8] was 87% and the Activity [9] was 114%. The Activity [10] was 95%, the Activity [11] was 121% and the Activity [12] was 109%. It also gave an Activity [13] of 93.5%, an Activity [14] of 110% and an Activity [15] of 97%. It also gave an Activity [16] of 104%, an Activity [17] of 91.5% and an Activity [18] of 104%. The Activity [19] was 97%, the Activity [20] was 108% and the Activity [21] was 108%. It also gave an Activity [22] of 132%, an Activity [23] of 122% and an Activity [24] of 110%. For the same molecule, the Activity [25] was 107%, the Activity [26] was 99.5% and the Activity [27] was 143%. The Activity [28] was 107%, the Activity [29] was 90% and the Activity [30] was 97.5%. The Activity [31] was 103%, the Activity [32] was 100% and the Activity [33] was 83.5%. The Activity [34] was 106%, the Activity [35] was 96% and the Activity [36] was 96%. It also gave an Activity [37] of 100% and an Activity [38] of 112%.
